Laboratory results reported in patent US20260027073A1, “USE OF SMALL-MOLECULE COMPOUND HAVING NAPHTHYLAMINE STRUCTURE” (HANGZHOU PHECDAMED CO., LTD., priority 2023, published 2026).
Values joined by “and” are separate entries in the source; they are usually repeats but may differ in a detail not shown here. Equal entries are not always repeated.

Key:
[1] = test system: mice with renal ischemia-reperfusion; assay: Unilateral renal ischemia-reperfusion acute kidney injury; type: in vivo, C57BL/6 mice
Experimental: 8-week-old C57BL/6 mice (weighing about 20-25 g) were injected intraperitoneally with 50 mg/kg sodium pentobarbital. After the mice were anesthetized, carried out preserved skin and placed on a thermostatic table, the skin and muscle of the right side were incised from the back and the right kidney was exposed, and the tissue around the pedicle of the kidney was stripped off with forceps to expose the blood vessels and the ureter. The arterial and venous blood vessels and the ureter were ligated with sutures. After removing the kidney, the muscle and skin were sutured with sutures and placed at 37° C. to wake it up, and after waking up, the mice were given […] of I-1. The experiments were divided into a sham group (exposing the right side of the kidney without removing it), a control group (giving solvent treatment by oral gavage), a 10 mg/kg group (10 mg/kg I-1 by oral gavage) and a 30 mg/kg group (30 mg/kg I-1 by oral gavage), with being administered once a day, and left kidney ischemia-reperfusion was performed on the sixth day, the specific plan was: mice were injected intraperitoneally with 50 mg/kg sodium pentobarbital, after anesthetizing, carried out preserved skin and placed on a thermostatic table, the skin and muscle of the left side were cut from the back and the left kidney was exposed, and the tissue around the pedicle of the kidney was stripped off with forceps to expose the blood vessels, and the arterial clip were used to tighten the blood vessel, after ischemia for 45 min, the arterial clip were released and the kidney tissue was returned to its place with a cotton swab, and finally the muscle and skin were sutured with a suture lines and the mice were placed at 37° C. to wake it up, and given another drug treatment after waking up. Blood was taken from the eyeball after 24 h of reperfusion, and the blood was centrifuged at 12000 g for 10 min at 4° C. after standing at room temperature for 45 min, and the supernatant (serum) was taken to detect the level of creatinine and urea nitrogen in the serum with a biochemical analyzer.
After blood extraction from the mouse eyeballs, cardiac perfusion was performed with PBS, after mice were anesthetized and fixed on a foam plate with a needle, the skin and ribs of the chest and abdomen were cut open to expose the heart, the injection needle was inserted into the left ventricle of mice and the pericardium was cut open at the same time, and the perfusion was performed with PBS at a speed of 7 rpm until the liver turned white and then the perfusion was stopped, the kidneys were taken out, and the renal peritoneum was removed, and the kidneys were put into 4% paraformaldehyde and fixed and immersed for 72 h. Subsequently, tissue embedding was carried out. Then tissue embedding, sectioning and HE staining were performed as follows:
Tissue was dewaxed after embedding and sectioning, and performed antigen repair, 5% goat serum sealing solution was added dropwise at 37° C. for 40 min, 50 μl of KIM-1 and caspase3 primary antibody (1:500) was added dropwise, overnight at 4° C.; after rewarming at 37° C. for 30 min, the tissue was washed by PBS four times, each time for 5 min. And then fluorescence secondary antibody was added dropwise for Ih, and the tissue was washed by PBS four times, each time for 5 min, finally, the tissue was stained by DAPI for 10 min, sealed with nail polish, and images were collected by cytation 3.

[2] = test system: rats of adenine induced kidney injury model; assay: Adenine-induced kidney injury; type: in vivo, SD rats
Experimental: Adenine-induced kidney injury is an animal model of chronic kidney injury. The model was prepared as follows: 1500 mg/kg of potassium oxonate and 50 mg/kg of adenine were ground and suspended in 0.5% carboxymethylcellulose sodium (CMC-Na) solution and gavaged once a day in a volume of 10 mL/kg for 180-200 g male SD rats, and an equal dose of 0.5% CMC-Na solution was gavaged for the sham group. After 1 week of modeling, serum creatinine (Cr) was measured weekly to determine whether the model was successful or not; in this experiment, there was a statistically significant difference in serum creatinine elevation on the 21st day of modeling compared with that of the sham group, at this time, administration in group was initiated, and the shock modeling with 1500 mg/kg of potassium oxonate and 50 mg/kg of adenine was continued daily along with the administration. The test was divided into three groups according to the serum creatinine level, sham operation group (sham group, without adenine modeling and vehicle treatment by oral gavage), control group (model control group, vehicle treatment by oral gavage), and 15 mg/kg group (15 mg/kg compound I-1 by oral gavage), and the dosage was once a day in the volume of 10 ml/kg for 21 consecutive days. […] At the end of the administration, blood was collected from the heart, and the blood was centrifuged at 12000 g for 10 minutes at 4° C. after standing at room temperature for 45 minutes, and the supernatant (serum) was extracted to measure the levels of creatinine and uric acid in the serum. After euthanasia of rats at endpoint of test, rats were dissected and kidneys were taken, of which 4 kidneys were fixed with 4% paraformaldehyde for 48 h, embedded in paraffin, sectioned, and HE stained, the specific staining operation was as described above. The left kidney tissue was taken and ground, and the inflammatory factors IL-10 and TNFα were detected by Elisa method.

[3] = test system: autoimmune myocarditis model rats; assay: Autoimmune myocarditis model; type: in vivo, Lewis rats; conditions: for left ventricular end-diastolic transverse diameter LVIDd / left ventricular end-systolic transverse diameter LVIDs / ejection fraction EF / short-axis fractional shortening FS / serum CK-MB level: 30 mg/kg oral gavage, 4 weeks; for left ventricular end-diastolic transverse diameter LVIDd / left ventricular end-systolic transverse diameter LVIDs: FIG. 79; for ejection fraction EF / short-axis fractional shortening FS: FIG. 80; for serum CK-MB level: FIG. 81
Experimental: 8-week-old male SPF-grade Lewis rats were adaptively fed for one week to construct an autoimmune myocarditis model. The rats were divided into two groups, normal control group (normal rats, routine feeding) and model group, in which porcine cardiac myosin used to induce autoimmunity and Freund's adjuvant were fully mixed in 1:1 in the model group (purified porcine cardiac myosin was dissolved in PBS solution, with its concentration being controlled to 10 g/L, under sterile conditions the solution was mixed with the complete Freund's adjuvant CFA in 1:1 equal volume and emulsified completely, so that it became a homogeneous emulsion), a total of 0.2 ml of the immunization mixture was injected subcutaneously into multiple points such as the bilateral groin and axilla of the rats. Normal control rats were immunized with myosin-free PBS and CFA emulsion. From the 14th day after immunization, the model groups were administrated in groups, and were divided into three groups: model group (model, treated with 0.5% CMC-Na by oral gavage, n=8) TJ01-013 treatment group (TJ01-013, 30 mg/kg TJ01-013 by oral gavage, n=8), I-14-1 treatment group (I-14-1, 30 mg/kg I-14-1 by oral gavage, n=8). A normal control group (Control, treated with 0.5% CMC-Na by oral gavage, n=8) was further provided, and the administration of the drug was started immediately after grouping, and the drug was administered for a total of 4 weeks. At the end of the administration, rats were weighed, anesthetized and blood was taken, and serum was extracted and the corresponding physiological indexes were detected. After euthanasia, the rats' hearts were stripped and weighed, and the organ coefficients of the hearts were calculated.
After the end of administration, rats were weighed, anesthetized with 10% chloral hydrate via intraperitoneal injection, and then subjected to echocardiography in the supine and slightly left lateral position after chest hair removal, and the average value was taken from 3 repetitions. The detection indexes include left ventricular end-diastolic transverse diameter LVIDd, left ventricular end-systolic transverse diameter LVIDs, short-axis fractional shortening FS, and ejection fraction EF.

[4] = reperfusion 24 h, oral gavage 10 mg/kg and 30 mg/kg, FIG. 1

With `O=C(O)C[S+]([O-])c1cc(NS(=O)(=O)c2ccc(Br)cc2)c2ccccc2c1O` (stereo not shown) [I-1] the “damage to renal tissues (HE staining)” value ([1]; FIG. 2) was “alleviated the damage to renal tissues”, the “KIM-1 level in renal tissue (immunostaining)” value ([1]; FIG. 3) was “inhibited” and the “cleaved-caspase3 level in renal tissue (immunostaining)” value ([1]; FIG. 3) was “inhibited”. For the same compound, the serum creatinine level [1, 4] was “significantly reduced”, the “serum urea nitrogen level” value [1, 4] was “significantly reduced” and the body weight ([2]; 15 mg/kg oral gavage, 21 days, FIG. 9) was “no significant change”. The “TNF-α level in kidney tissues” value ([2]; 15 mg/kg, 21 days, FIG. 12) was “significantly decreased”, the “renal histopathology (HE staining)” value ([2]; 15 mg/kg, 21 days, FIG. 13) was “improved the histopathology of adenine-induced renal injury to some extent” and the “serum urea nitrogen level” value ([2]; 15 mg/kg, 21 days, P<0.05, FIG. 11) was “significantly decreased”. For the same compound, the “Serum creatinine decreased by” value ([2]; 15 mg/kg, after 21 days, P<0.05, FIG. 10) was 20.7%, the “Renal lesion (number of kidneys, n = 4)” value ([2]; Degree of lesion + (mild lesions), 15 mg/kg) was 1/4 and 1 and the “Renal lesion (number of kidneys, n = 4)” value ([2]; Degree of lesion ++ (moderate lesions), 15 mg/kg) was 3/4 and 3. For the same compound, the “Renal lesion (number of kidneys, n = 4)” value ([2]; Degree of lesion +++ (severe lesions), 15 mg/kg) was 0, the “Renal lesion (number of kidneys, n = 4)” value ([2]; Degree of lesion ± (slight lesions), 15 mg/kg) was 0 and the “Renal lesion (number of kidneys, n = 4)” value ([2]; Degree of lesion − (no lesions), 15 mg/kg) was 0. The “left ventricular end-diastolic transverse diameter LVIDd” value [3] was “reduce”, the “left ventricular end-systolic transverse diameter LVIDs” value [3] was “reduce” and the “ejection fraction EF” value [3] was “increase”. For the same compound, the “short-axis fractional shortening FS” value [3] was “increase”, the “serum CK-MB level” value [3] was “decrease” and the “treatment of TJ01-013 compared with I-14-1” value ([3]; LVIDd/LVIDs, EF/FS, CK-MB) was “significantly better”.

`O=C(O)C[S+]([O-])c1cc(NS(=O)(=O)c2ccc(C(F)(F)F)cc2)c2ccccc2c1O` (stereo not shown) [I-14-1] was tested, and the “left ventricular end-diastolic transverse diameter LVIDd” value [3] was “reduce”, the “left ventricular end-systolic transverse diameter LVIDs” value [3] was “reduce” and the “ejection fraction EF” value [3] was “increase”. For the same compound, the “short-axis fractional shortening FS” value [3] was “increase” and the “serum CK-MB level” value [3] was “decrease”.

In the case of `O=C(O)CSc1cc(NS(=O)(=O)c2ccc(Br)cc2)c2ccccc2c1O` [UMI-77, reference compound], the “treatment of renal ischemia-reperfusion injury compared with I-1” value ([1]; UMI-77 group vs I-1) was “less effective” and the “treatment of adenine-induced renal injury compared with I-1” value ([2]; UMI-77 vs I-1) was “less effective”.
